Test results reported in patent US20080242682A1, “Preventive or Therapeutic Agent for Sleep Disorder” (Takeda Pharmaceutical Company Limited, priority 2004, published 2008).

Experiments:
Macaca fascicularis = test: Experiment 1: sleep electroencephalogram (sleep latency and sleep duration in the night) in monkeys after oral administration; assay type: in vivo; details: female Macaca fascicularis, compound A 0.3 mg/kg, ritanserin 1 mg/kg; for SWS (slow-wave sleep) duration in breakdown of sleep duration / total sleep duration: 12 hours from lights-out to lights-on, drug-treated value; for sleep latency of LS / sleep latency of SWS: before lights-out, drug-treated value (vs vehicle, crossover)
Method: 3 Female Macaca fascicularis were used for experiment. Drugs were administered according to crossover design. Test animals were operated to place an electrode to measure electroencephalogram, and were naturalized fully to test cage. The test animals were raised under light-dark cycle of 12 hour-light period and 12 hour-dark period (light period is from 6:00 to 18:00).
The dose of compound A was 0.3 mg/kg, and the dose of ritanserin was 1 mg/kg, and these were suspended in 0.5% methylcellulose solution to make dosage of 1 ml/kg. As control, 0.5% methylcellulose solution was used. Administration was conducted orally using transnasal catheter 5 to 10 minutes before extinction (17:50-17:55).
Measurement items were electroencephalogram, ocular movement and myogenic potential, and behavior was observed using infrared camera. Measurement was carried out for 12 hours from lights-out (18:00) to lights-on (6:00).
Data analysis was carried out for sleep latency and total sleep duration in the night.

Cat = test: Experiment 2: effect of combined use of compound A and gabapentin (GBP) on sleep wakefulness of cat (sleep electroencephalogram); assay type: in vivo; details: oral capsule, 8 hours after administration, compound A 0.1 mg/kg, gabapentin 10 mg/kg
Method: Used animals: 4 Siamese cats (purchased from Narc co.), 2 European shorthairs (purchased from Nisseiken co. Ltd.) and 1 mongrel cat (purchased from Narc co.) were used.
Under pentobarbital anesthesia, the following electrode and the like were implanted. An antibiotic was administered to prevent bacterial infection, and taming to cage for measuring electroencephalogram was started from 3 to 4 days after the operation. Measurement of electroencephalogram was carried out after 1 to 2 weeks of taming. • electrode for recording electroencephalogram in frontal lobe of cerebral cortex, frontal lobe and hippocampus • electrode for electrooculogram in orbit bone • stainless wire for recording electromyogram in dorsal cervical muscle […]
After being attached the electrodes for measurement from about 8:30 in the morning, the cats were placed in test box. Administration was conducted by 9:55 to 10:05 in the morning, and the sleep electroencephalogram for 8 hours after administration was measured.
Electroencephalogram data was obtained using Synafit 2500 of NEC Saneisha. […] In addition, the stage judged to be at slow-wave sleep was extracted, frequency analysis was carried out, and power spectrum during slow-wave sleep was calculated. […]

Row | SMILES | SWS (slow-wave sleep) duration in breakdown of sleep duration (Macaca fascicularis) [min] | total sleep duration (Macaca fascicularis) [min] | sleep latency of LS (Macaca fascicularis) [min] | sleep latency of SWS (Macaca fascicularis) [min] | total slow-wave sleep duration (Cat) [min]
1 | CCC(=O)NCC[C@@H]1CCc2ccc3c(c21)CCO3 [compound A, (S)—N-[2-(1,6,7,8-tetrahydro-2H-indeno[5,4-b]furan-8-yl)ethyl]propionamide] | 135 | 610 | 13.3 | 31.3 | 124.9
2 | Cc1nc2sccn2c(=O)c1CCN1CCC(=C(c2ccc(F)cc2)c2ccc(F)cc2)CC1 [ritanserin, reference compound] | 249 | 573 | 12.0 | 39.3 | –
